Consider 15 compounds from ChEMBL document CHEMBL4396905, “Design, synthesis and in vitro evaluation of 6-amide-2-aryl benzoxazole/benzimidazole derivatives against tumor cells by inhibiting VEGFR-2 kinase” (Eur J Med Chem, 2019).

The target in assay [1] is T1, Vascular endothelial growth factor receptor 2 (Homo sapiens, UniProt P35968). In words: Inhibition of VEGFR2 (unknown origin) using Poly (Glu, Tyr) 4:1 as substrate preincubated with substrate followed by enzyme challenge for 1 hr by ELISA. In general terms: ELISA stands for enzyme-linked immunosorbent assay.
The target of assay [2] is Epidermal growth factor receptor (Homo sapiens) (UniProt P00533). In words: Inhibition of EGFR (unknown origin) using Poly (Glu, Tyr) 4:1 as substrate at 1 uM preincubated with substrate followed by enzyme challenge for 1 hr by ELISA relative to control.
The subject of a further assay is HUVEC. Description: Antiproliferative activity against human HUVEC cells expressing VEGFR2 assessed as reduction in cell growth incubated for 48 hrs by MTT assay. It counts as functional, cell-based. (Formazan colour is commonly taken as a measure of viable cells.)
In a further assay the test system is HepG2. Description: Antiproliferative activity against human HepG2 cells expressing VEGFR2 assessed as reduction in cell growth incubated for 48 hrs by MTT assay. It counts as functional, cell-based. To be noted: HepG2, 48 h.
The test system of a further assay is A549. In words: Antiproliferative activity against human A549 cells expressing EGFR assessed as reduction in cell growth incubated for 48 hrs by MTT assay. It counts as functional, cell-based. As to conditions: A549, 48 h.
For another assay, the system named is MDA-MB-231. Description: Antiproliferative activity against human MDA-MB-231 cells expressing EGFR assessed as reduction in cell growth incubated for 48 hrs by MTT assay. It counts as functional, cell-based. As to conditions: MDA-MB-231, 48 h.
In assay [3] the target is T1, Vascular endothelial growth factor receptor 2. As to conditions: at 1 µM.
Description: Inhibition of VEGFR2 (unknown origin) using Poly (Glu, Tyr) 4:1 as substrate at 1 uM preincubated with substrate followed by enzyme challenge for 1 hr by ELISA relative to control

T1 sequence (P35968 whole entry): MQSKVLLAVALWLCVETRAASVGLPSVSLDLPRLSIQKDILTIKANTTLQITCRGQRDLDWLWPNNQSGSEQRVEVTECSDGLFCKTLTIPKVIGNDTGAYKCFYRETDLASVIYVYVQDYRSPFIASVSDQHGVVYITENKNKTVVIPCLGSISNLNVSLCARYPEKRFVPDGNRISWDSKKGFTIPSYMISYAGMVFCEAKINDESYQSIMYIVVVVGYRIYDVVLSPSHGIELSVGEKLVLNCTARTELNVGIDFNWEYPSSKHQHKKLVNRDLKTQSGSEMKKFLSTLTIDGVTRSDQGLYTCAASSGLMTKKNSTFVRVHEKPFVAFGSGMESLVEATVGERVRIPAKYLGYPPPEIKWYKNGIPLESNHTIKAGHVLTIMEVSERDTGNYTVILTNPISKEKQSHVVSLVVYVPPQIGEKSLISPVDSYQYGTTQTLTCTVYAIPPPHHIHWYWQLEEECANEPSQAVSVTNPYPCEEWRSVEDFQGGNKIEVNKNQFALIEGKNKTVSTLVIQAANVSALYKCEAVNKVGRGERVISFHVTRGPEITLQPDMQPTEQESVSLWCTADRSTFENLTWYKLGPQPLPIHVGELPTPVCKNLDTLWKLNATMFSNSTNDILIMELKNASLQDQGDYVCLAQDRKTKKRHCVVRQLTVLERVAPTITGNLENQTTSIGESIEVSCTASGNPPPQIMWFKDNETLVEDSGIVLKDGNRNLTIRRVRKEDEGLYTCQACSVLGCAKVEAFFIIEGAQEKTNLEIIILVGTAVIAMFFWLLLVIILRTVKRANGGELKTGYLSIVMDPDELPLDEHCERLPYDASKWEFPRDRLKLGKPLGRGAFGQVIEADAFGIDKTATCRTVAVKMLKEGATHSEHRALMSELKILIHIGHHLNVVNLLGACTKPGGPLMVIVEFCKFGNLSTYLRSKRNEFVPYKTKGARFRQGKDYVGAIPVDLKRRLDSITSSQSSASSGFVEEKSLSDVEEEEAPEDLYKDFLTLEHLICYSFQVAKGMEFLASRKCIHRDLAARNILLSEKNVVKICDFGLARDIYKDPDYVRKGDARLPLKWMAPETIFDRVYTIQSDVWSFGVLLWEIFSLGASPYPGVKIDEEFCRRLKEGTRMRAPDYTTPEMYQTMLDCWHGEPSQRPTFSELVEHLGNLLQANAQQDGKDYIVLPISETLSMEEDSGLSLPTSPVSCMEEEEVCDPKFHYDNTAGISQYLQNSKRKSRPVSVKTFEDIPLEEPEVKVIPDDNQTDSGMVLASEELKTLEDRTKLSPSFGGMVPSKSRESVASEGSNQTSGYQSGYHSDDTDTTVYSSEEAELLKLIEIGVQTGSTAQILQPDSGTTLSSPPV
Sequence of Epidermal growth factor receptor (Homo sapiens) (P00533 whole entry): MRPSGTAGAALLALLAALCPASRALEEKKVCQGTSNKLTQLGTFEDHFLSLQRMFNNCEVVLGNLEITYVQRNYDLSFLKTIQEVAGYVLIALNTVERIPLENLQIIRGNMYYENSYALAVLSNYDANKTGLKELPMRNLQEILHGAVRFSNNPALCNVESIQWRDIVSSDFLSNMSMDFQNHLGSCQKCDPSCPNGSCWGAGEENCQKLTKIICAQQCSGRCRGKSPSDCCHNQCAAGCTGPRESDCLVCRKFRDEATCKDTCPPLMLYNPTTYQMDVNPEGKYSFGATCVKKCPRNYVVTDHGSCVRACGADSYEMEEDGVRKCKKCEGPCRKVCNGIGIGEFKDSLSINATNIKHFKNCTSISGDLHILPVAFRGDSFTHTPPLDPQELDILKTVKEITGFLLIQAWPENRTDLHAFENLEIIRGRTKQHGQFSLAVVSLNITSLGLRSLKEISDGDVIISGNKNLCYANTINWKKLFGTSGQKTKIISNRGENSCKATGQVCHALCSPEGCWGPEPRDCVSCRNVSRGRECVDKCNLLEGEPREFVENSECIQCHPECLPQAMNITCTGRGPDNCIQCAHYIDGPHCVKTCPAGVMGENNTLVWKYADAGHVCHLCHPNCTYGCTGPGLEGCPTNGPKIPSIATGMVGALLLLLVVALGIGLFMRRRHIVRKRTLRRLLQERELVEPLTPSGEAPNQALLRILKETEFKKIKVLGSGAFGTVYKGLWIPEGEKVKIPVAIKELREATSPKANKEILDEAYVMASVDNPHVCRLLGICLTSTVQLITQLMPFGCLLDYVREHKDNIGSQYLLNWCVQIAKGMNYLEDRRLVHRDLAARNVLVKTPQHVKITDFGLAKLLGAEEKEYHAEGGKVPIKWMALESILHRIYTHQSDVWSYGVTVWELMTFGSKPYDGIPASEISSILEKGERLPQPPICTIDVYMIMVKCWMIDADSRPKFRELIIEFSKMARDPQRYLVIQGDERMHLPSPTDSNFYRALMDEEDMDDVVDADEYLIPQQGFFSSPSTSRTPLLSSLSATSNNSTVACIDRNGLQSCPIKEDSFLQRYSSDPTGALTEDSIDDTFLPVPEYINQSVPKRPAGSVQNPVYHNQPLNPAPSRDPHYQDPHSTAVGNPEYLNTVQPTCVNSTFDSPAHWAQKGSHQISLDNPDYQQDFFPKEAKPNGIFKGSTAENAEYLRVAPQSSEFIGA

By IC50 is commonly meant the point on the concentration scale where inhibition reaches its midpoint. Broadly, the inhibition is the change of the read-out against control, counted positive when it falls. Consider `COc1ccc(CC(=O)Nc2ccc3oc(-c4ccccc4F)nc3c2)cc1`, for which the IC50 in assay [1] was 0.166 µM; with HUVEC it was 14.2 µM; in the assay on HepG2, 37.3 µM; in the assay with A549 it was over 100 µM; with MDA-MB-231, over 100 µM. Moreover, the inhibition in assay [2] was 42.8%; in assay [3], 94.6%.
Turning to `COc1ccc(CC(=O)Nc2ccc3oc(-c4ccccc4Cl)nc3c2)cc1`, the IC50 in assay [1] is 0.444 µM; with HUVEC, 15.4 µM; in the assay on HepG2, 30.8 µM; in the assay on A549, over 100 µM; with MDA-MB-231 it was 76.2 µM. For the same compound, the inhibition in assay [2] turned out to be 43.8%; in assay [3], 90.1%.
For `COc1cc(CC(=O)Nc2ccc3oc(-c4ccc(Cl)cc4)nc3c2)cc(OC)c1OC`, the IC50 is 0.259 µM in assay [1]; 13.3 µM with HUVEC; 28.2 µM with HepG2; over 100 µM in the assay with A549; over 100 µM in the assay on MDA-MB-231. Further, the figures for the inhibition in assay [2] and in assay [3] were 58.9% and 91.5%, respectively.
Take `COc1cc(CC(=O)Nc2ccc3[nH]c(-c4ccc(Cl)cc4)nc3c2)cc(OC)c1OC`: the IC50 in assay [1] was 0.419 µM; in the assay with HUVEC, 7.32 µM; with HepG2, 3.43 µM; in the assay on A549, 36.8 µM; with MDA-MB-231, 75.9 µM. Moreover, the figures for the inhibition in assay [2] and in assay [3] were 43.1% and 90.2%, respectively.
Turning to `O=C(Nc1ccc2[nH]c(-c3ccc(Cl)cc3)nc2c1)c1ccc(Cl)c(Br)c1`, the IC50 in assay [1] worked out at 0.542 µM; in the assay on HUVEC it was 7.61 µM; in the assay with HepG2 it was 12 µM; in the assay on A549, 30.4 µM; in the assay on MDA-MB-231 it was 74.4 µM. For the same compound, the values for the inhibition in assay [2] and in assay [3] were 40.8% and 93.8%, respectively.
Turning to `COc1cc(CC(=O)Nc2ccc3oc(-c4ccccc4)nc3c2)cc(OC)c1OC`, the IC50 in assay [1] stood at 0.357 µM; in the assay with HUVEC, 19.2 µM; in the assay on HepG2, 26.4 µM; in the assay on A549, 93.4 µM; in the assay on MDA-MB-231, 79.5 µM. For the same compound, the inhibition in assay [2] worked out at 47.3%; in assay [3], 89.3%.
`Cc1ccc(CC(=O)Nc2ccc3oc(-c4ccccc4Cl)nc3c2)cc1`: the IC50 in assay [1] was found to be 0.489 µM; in the assay with HUVEC it was 16.3 µM; in the assay on HepG2, 36.3 µM; with A549, 64.4 µM; in the assay with MDA-MB-231, 47.7 µM. In addition, the results for the inhibition in assay [2] and in assay [3] were 47.5% and 93.5%, respectively.
On to `COc1ccc(CC(=O)Nc2ccc3oc(-c4ccc(Cl)cc4)nc3c2)cc1OC`, for which the IC50 in assay [1] is 0.386 µM; in the assay on HUVEC it was 11.4 µM; with HepG2, 24.3 µM; with A549, over 100 µM; in the assay on MDA-MB-231, over 100 µM. The inhibition was determined as 52.2% in assay [2] and 92.6% in assay [3].
`Cc1ccc(CC(=O)Nc2ccc3[nH]c(-c4ccc(Cl)cc4)nc3c2)cc1`: the IC50 is 0.0737 µM in assay [1]; 3.21 µM in the assay with HUVEC; 5.56 µM with HepG2; 59.6 µM in the assay on A549; 63.2 µM with MDA-MB-231. Further, the inhibition in assay [2] amounted to 48.3%; in assay [3], 100%.
Turning to `O=C(Nc1ccc2oc(-c3ccc(Cl)cc3)nc2c1)c1ccc(Cl)c(Br)c1`, the IC50 in assay [1] is 0.338 µM; in the assay on HUVEC, 13.4 µM; in the assay with HepG2, 37 µM; with A549 it was over 100 µM; in the assay on MDA-MB-231 it was over 100 µM. The inhibition was 44.1% in assay [2] and 90.2% in assay [3].
For `COc1ccc(CC(=O)Nc2ccc3oc(-c4ccccc4)nc3c2)cc1OC`, the half-maximal inhibitory concentration (IC50) in assay [1] came out at 0.579 µM; with HUVEC, 18.4 µM; with HepG2 it was 16.4 µM; in the assay with A549 it was 89.2 µM; with MDA-MB-231 it was 94.3 µM. Further, the inhibition was 37.2% in assay [2] and 83.5% in assay [3].
For the compound `COc1ccc(CC(=O)Nc2ccc3oc(-c4ccc(Cl)cc4)nc3c2)cc1`, the half-inhibitory concentration (IC50) in assay [1] came out at 0.0973 µM; with HUVEC, 5.25 µM; with HepG2, 8.22 µM; in the assay on A549, 74.4 µM; in the assay with MDA-MB-231, 74.3 µM. Further, the inhibition in assay [2] is 49.4%; in assay [3] it was 102%.
On to `Cc1ccc(CC(=O)Nc2ccc3oc(-c4ccccc4F)nc3c2)cc1`, for which the IC50 in assay [1] was determined as 0.233 µM; with HUVEC, 12.8 µM; with HepG2, 39.2 µM; in the assay with A549 it was 83.3 µM; in the assay with MDA-MB-231, 93.7 µM. Also, the inhibition in assay [2] is 39.5%; in assay [3], 97.3%.
In the case of `O=C(Nc1ccc2[nH]c(-c3ccc(Cl)cc3)nc2c1)c1ccc(Cl)c(F)c1`, the IC50 stood at 0.988 µM in assay [1]; 13.4 µM with HUVEC; 26.3 µM in the assay with HepG2; 36.6 µM in the assay on A549; 69.4 µM in the assay with MDA-MB-231. The inhibition in assay [2] worked out at 45.2%; in assay [3], 87.5%.
Regarding `Cc1ccc(CC(=O)Nc2ccc3oc(-c4ccccc4Br)nc3c2)cc1`, the IC50 in assay [1] was determined as 0.842 µM; in the assay on HUVEC it was 23.6 µM; in the assay with HepG2, 33.1 µM; in the assay with A549, 40.2 µM; in the assay on MDA-MB-231, 74.3 µM. Besides, the figures for the inhibition in assay [2] and in assay [3] were 39.1% and 89.1%, respectively.
